{"source": "paper PMC7115507", "about": "(European Journal of Medicinal Chemistry, 2019)", "key": {"[1]": {"target": "SAH hydrolase (Homo sapiens, UniProt P23526)", "sequence (P23526 whole entry)": "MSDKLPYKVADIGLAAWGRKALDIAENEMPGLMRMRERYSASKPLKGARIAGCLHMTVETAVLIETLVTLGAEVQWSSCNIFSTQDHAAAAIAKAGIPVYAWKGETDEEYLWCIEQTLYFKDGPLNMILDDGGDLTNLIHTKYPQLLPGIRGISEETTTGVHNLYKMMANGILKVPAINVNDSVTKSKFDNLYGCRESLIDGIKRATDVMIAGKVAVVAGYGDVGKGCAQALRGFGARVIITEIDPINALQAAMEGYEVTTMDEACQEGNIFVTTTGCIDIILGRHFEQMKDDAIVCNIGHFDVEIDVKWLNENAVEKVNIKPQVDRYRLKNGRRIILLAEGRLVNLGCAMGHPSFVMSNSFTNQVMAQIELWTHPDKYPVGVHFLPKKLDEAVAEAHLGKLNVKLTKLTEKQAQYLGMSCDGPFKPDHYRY", "assay_type": "biochemical"}, "[2]": {"test_system": "CHIKV", "assay_type": "cell-based, Chikungunya virus"}, "[3]": {"test_system": "Vero E6 cells", "experiment": "Cytotoxicity", "details": "highest dose tested"}, "[4]": {"test_system": "HSV-1", "details": "cited from earlier work"}, "[5]": {"test_system": "HSV-2", "details": "cited from earlier work"}, "[6]": {"test_system": "CHIKV", "details": "cited from earlier work"}, "[7]": {"test_system": "SARS-CoV", "details": "cited from earlier work"}, "[8]": {"test_system": "MERS-CoV", "details": "cited from earlier work"}, "[9]": {"test_system": "ZIKV", "details": "cited from earlier work"}, "[10]": {"test_system": "SARS-CoV", "assay_type": "cell-based, severe acute respiratory syndrome coronavirus"}, "[11]": {"test_system": "MERS-CoV", "assay_type": "cell-based, Middle East respiratory syndrome coronavirus"}, "[12]": {"test_system": "ZIKV", "assay_type": "cell-based, Zika virus"}}, "note": "“Also recorded” adds a separate entry of the source. Like-named read-outs stand apart in the source and are kept apart here.", "data": [{"smiles": "Nc1ncnc2c1ncn2[C@H]1[C@H](O)[C@H](O)[C@@H](CCO)[C@H]1F", "note": "[Compound 3a, (1R,2S,3S,4R,5R)-3-(6-Amino-9H-purin-9-yl)-4-fluoro-5-(2-hydroxyethyl)cyclopentane-1,2-diol]", "values": [{"measurement": "potency towards SAH hydrolase relative to 3d", "setting": "[1]", "result": 5.6, "unit": "times"}, {"measurement": "selectivity index (SI)", "setting": "[2]", "result": "more than 2083"}, {"measurement": "concentration up to which no noticeable cytotoxicity was seen", "setting": "[3]", "result": "> 250", "unit": "µM"}]}, {"smiles": "Nc1ncnc2c1ncn2C1CC(CCO)C(O)C1O", "note": "(single isomer, unassigned; (-)) [(−)-homoaristeromycin]", "values": [{"measurement": "activity against HSV-1 (in words)", "setting": "[4]", "result": "inactive"}, {"measurement": "activity against HSV-2 (in words)", "setting": "[5]", "result": "inactive"}]}, {"smiles": "Nc1ncnc2c1ncn2[C@H]1[C@H](O)[C@H](O)[C@@H](CO)C1(F)F", "note": "[Compound 2b, 6,6′-difluoro-aristeromycin]", "values": [{"measurement": "antiviral activity against CHIKV (in words)", "setting": "[6]", "result": "broad-spectrum antiviral activity"}, {"measurement": "antiviral activity against CHIKV (in words)", "setting": "[6]; listed as 2", "result": "potent antiviral activities"}, {"measurement": "antiviral activity against SARS-CoV (in words)", "setting": "[7]", "result": "broad-spectrum antiviral activity; also recorded: potent antiviral activities"}, {"measurement": "antiviral activity against MERS-CoV (in words)", "setting": "[8]", "result": "broad-spectrum antiviral activity; also recorded: potent antiviral activities"}, {"measurement": "antiviral activity against ZIKV (in words)", "setting": "[9]", "result": "broad-spectrum antiviral activity"}, {"measurement": "antiviral activity against ZIKV (in words)", "setting": "[9]; listed as 2", "result": "potent antiviral activities"}]}, {"smiles": "Nc1ncnc2c1ncn2[C@H]1[C@H](O)[C@H](O)[C@@H](CCO)C1(F)F", "note": "[Compound 3d]", "values": [{"measurement": "antiviral activity against CHIKV (in words)", "setting": "[2]", "result": "did not exhibit antiviral activity"}, {"measurement": "antiviral activity against SARS-CoV (in words)", "setting": "[10]", "result": "did not exhibit antiviral activity"}, {"measurement": "antiviral activity against MERS-CoV (in words)", "setting": "[11]", "result": "did not exhibit antiviral activity"}, {"measurement": "antiviral activity against ZIKV (in words)", "setting": "[12]", "result": "did not exhibit antiviral activity"}]}, {"smiles": "OCC[C@@H]1[C@@H](O)[C@@H](O)[C@H](n2cnc3c(O)ncnc32)[C@@H]1F", "note": "[Compound 3c, 9-((1S,2R,3R,4R,5S)-2-fluoro-4,5-dihydroxy-3-(2-hydroxyethyl)cyclopentyl)-1,9-dihydro-6H-purin-6-one]", "values": [{"measurement": "inhibition of SAH hydrolase at the highest dose tested (in words)", "setting": "[1]", "result": "no inhibitory activity was observed"}]}, {"smiles": "Nc1ncnc2c1ncn2[C@H]1[C@H](O)[C@H](O)[C@@H](CO)[C@H]1F", "note": "[Compound 2a, 6′-β-fluoro-aristeromycin]", "values": [{"measurement": "antiviral activity against CHIKV (in words)", "setting": "[2]", "result": "inactive"}]}]}
